Read-outs that look alike come from different tables or passages of the source.
Tests used:
[1] = Solubility determination; details: for Sol6: pH 6; for Sol7: pH 7
How it was run: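 Solubility is derived from the ratio of reversed-phase peak areas, filtered sample over a control dissolved at 1 mg/ml in 50% acetonitrile. Peptides are agitated for 2 hours at room temperature in 0.1 M sodium diphosphate at pH 6.4 or 7.0, aiming at 10 mg/ml.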

[2] = molecular target: T1, human NPY1 receptor (hY1R) (Homo sapiens, UniProt P25929); test: HTRF cAMP Gi assay, hY1R; type: cell-based; details: CHO-K1 cells
T1 construct: expressed in transfected cells; host or cells: CHO-K1
T1 sequence (P25929 1-384): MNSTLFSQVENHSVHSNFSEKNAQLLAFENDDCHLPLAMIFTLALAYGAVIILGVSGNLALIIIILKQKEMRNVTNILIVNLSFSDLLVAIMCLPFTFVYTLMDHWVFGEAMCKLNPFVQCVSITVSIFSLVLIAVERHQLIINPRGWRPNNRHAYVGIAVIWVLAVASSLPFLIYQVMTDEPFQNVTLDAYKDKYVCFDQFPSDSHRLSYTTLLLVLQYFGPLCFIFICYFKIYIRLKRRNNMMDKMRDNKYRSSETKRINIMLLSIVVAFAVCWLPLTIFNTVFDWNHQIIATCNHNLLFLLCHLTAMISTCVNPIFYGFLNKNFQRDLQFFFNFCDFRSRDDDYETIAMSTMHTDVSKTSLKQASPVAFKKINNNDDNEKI

[3] = molecular target: T2, human NPY5 receptor (hY5R) (Homo sapiens, UniProt Q15761); test: HTRF cAMP Gi assay, hY5R
T2 sequence (Q15761 1-445): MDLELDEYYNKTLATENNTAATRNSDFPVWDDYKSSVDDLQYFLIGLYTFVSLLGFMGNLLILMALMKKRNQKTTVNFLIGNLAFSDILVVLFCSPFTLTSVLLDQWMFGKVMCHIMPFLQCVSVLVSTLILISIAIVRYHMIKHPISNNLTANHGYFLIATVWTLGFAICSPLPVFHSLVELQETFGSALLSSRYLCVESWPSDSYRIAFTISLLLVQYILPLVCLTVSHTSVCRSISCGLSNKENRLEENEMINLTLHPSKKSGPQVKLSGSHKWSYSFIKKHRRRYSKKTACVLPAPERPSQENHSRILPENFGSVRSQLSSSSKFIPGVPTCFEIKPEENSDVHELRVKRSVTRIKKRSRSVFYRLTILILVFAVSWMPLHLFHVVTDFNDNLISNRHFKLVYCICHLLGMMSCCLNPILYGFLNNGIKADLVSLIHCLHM

[4] = molecular target: T3, human NPY4 receptor (hY4R) (Homo sapiens, UniProt P50391); test: HTRF cAMP Gi assay, hY4R; type: cell-based; details: CHO-K1 cells
T3 construct: expressed in transfected cells; host or cells: CHO-K1
T3 sequence (P50391 whole entry): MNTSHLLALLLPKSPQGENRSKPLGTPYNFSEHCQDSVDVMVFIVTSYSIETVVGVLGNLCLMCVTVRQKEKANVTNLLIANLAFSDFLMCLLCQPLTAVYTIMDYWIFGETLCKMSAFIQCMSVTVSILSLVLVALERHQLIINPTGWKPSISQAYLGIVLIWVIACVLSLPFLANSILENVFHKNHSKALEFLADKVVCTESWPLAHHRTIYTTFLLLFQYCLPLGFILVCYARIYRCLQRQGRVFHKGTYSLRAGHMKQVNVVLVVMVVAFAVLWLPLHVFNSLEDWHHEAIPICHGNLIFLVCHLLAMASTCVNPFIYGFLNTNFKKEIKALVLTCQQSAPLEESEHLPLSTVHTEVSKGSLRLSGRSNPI
Protocol: Briefly, the production of intracellular cAMP will generate a competition between unlabeled cAMP and exogenously added d2-cAMP for anti-cAMP antibodies conjugated to cryptate. CHO-K1 cells stably expressing the human NPY1, NPY2, NPY4 and NPY5 receptors were used with the cells brought to life from a frozen stock immediately before assay performance. 2000 cells per well were applied for all four NPY receptor subtype assays. A 384-well format was used applying a total volume of 20 μl using 5 μl cells, 2.5 μl peptide agonist, 2.5 μl forskolin and 5 μl of each of the fluorophores. […] Concentration-response evaluation of compounds was performed with 11 concentrations of agonist peptides (covering 3 decades). EC50 values were calculated by nonlinear regression using sigmoid concentration-response with variable slope.

[5] = molecular target: T4, Human Neuropeptide Y2 Receptor (Homo sapiens, UniProt P49146); test: Radioligand binding competition assay (RLB)
T4 construct: purchased CHEMICON HTS066M
T4 sequence (P49146 1-381): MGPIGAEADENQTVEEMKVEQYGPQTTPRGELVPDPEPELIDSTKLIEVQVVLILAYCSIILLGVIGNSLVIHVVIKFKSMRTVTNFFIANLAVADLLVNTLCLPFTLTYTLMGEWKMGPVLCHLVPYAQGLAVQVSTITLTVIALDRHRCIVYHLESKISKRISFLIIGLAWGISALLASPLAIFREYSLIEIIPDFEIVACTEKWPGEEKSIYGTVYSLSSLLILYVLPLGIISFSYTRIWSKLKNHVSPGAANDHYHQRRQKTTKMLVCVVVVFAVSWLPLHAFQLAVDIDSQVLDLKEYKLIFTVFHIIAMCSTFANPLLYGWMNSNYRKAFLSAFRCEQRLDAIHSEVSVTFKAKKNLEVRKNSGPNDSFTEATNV
How it was run: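 Receptor membranes, 0.5 μg/well; buffer 50 mM HEPES/5 mM MgCl2/1 mM CaCl2/0.2% ovalbumin, pH 7.4; 2 h RT, shaking. GF/C filtration, cold HEPES/500 mM NaCl wash, scintillation count. IC50 by nonlinear regression.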

[6] = Table 3, 125I-PYY(1-36) competition, read-out: Ki

Sol6 [1] [mg/mL] | Sol7 [1] [mg/mL] | EC50 [2] [µM] | EC50 [3] [µM] | EC50 [4] [µM] | Ki [5, 6] [nM] | Ki ([5]; Table 8, DMSO stock, read-out: hY2R RLB Ki (nM) DMSO) [nM] | SMILES
10.0 | >10.0 | > 5 | > 5 | > 5 | 0.93 | 6.6 | CC[C@H](C)[C@H](NC(=O)[C@H](CCC(=O)O)NC(=O)[C@H](CCC(=O)O)NC(=O)[C@@H]1CCCN1C(=O)[C@H](CO)NC(=O)[C@H](C)NC(=O)[C@H](CC(=O)O)NC(=O)[C@H](CCC(=O)O)NC(=O)[C@H](CCC(=O)O)NC(=O)[C@@H]1CCCN1C(=O)[C@H](CCCCNC(=O)CCCCCNC(=O)CC[C@H](NC(=O)CCCCCCCCCCCCCCCCC(=O)O)C(=O)O)NC(=O)[C@H](C)NC(=O)[C@@H]1CCCN1C(=O)[C@H](C)NC(=O)CC(C)C)C(=O)N[C@@H](CCC(N)=O)C(=O)N[C@@H](CCCNC(=N)N)C(=O)N[C@@H](Cc1ccc(O)cc1)C(=O)N[C@@H](Cc1ccc(O)cc1)C(=O)N[C@H](C(=O)N[C@@H](CO)C(=O)N[C@@H](CC(C)C)C(=O)N[C@@H](CCCNC(=N)N)C(=O)N[C@@H](Cc1c[nH]cn1)C(=O)N[C@@H](Cc1ccc(O)cc1)C(=O)N[C@@H](Cc1ccc(O)cc1)C(=O)N[C@@H](CC(N)=O)C(=O)N[C@@H](Cc1c[nH]c2ccccc12)C(=O)N[C@@H](CC(C)C)C(=O)N[C@H](C(=O)N[C@@H](CCCNC(=N)N)C(=O)N[C@@H](CCC(N)=O)C(=O)N[C@@H](CCCNC(=N)N)C(=O)N[C@@H](Cc1ccc(O)cc1)C(N)=O)[C@@H](C)O)C(C)C [Compound 63, N{alpha-4}-(3-methylbutanoyl)-N{epsilon-7}-(6-[(4S)-4-carboxy-4-(17-carboxyheptadecanamido)butanamido]hexanoyl)-[4A,6A,7K,9E,17I,18Q,22V,28Y,30W,31L]-hPYY(4-36)]
8.5 | 9.2 | > 5 | > 5 | > 5 | 0.95 |  | CC[C@H](C)[C@H](NC(=O)[C@H](CCC(=O)O)NC(=O)[C@H](CCC(=O)O)NC(=O)[C@@H]1CCCN1C(=O)[C@@H](NC(=O)[C@H](C)NC(=O)[C@H](CC(=O)O)NC(=O)[C@H](CCC(=O)O)NC(=O)[C@H](CCC(=O)O)NC(=O)[C@@H]1CCCN1C(=O)[C@H](CCCCNC(=O)CCCCCNC(=O)CC[C@H](NC(=O)CCCCCCCCCCCCCCCCC(=O)O)C(=O)O)NC(=O)[C@H](C)NC(=O)[C@@H]1CCCN1C(=O)[C@H](C)NC(=O)CC(C)C)[C@@H](C)O)C(=O)N[C@@H](CCC(N)=O)C(=O)N[C@@H](CCCNC(=N)N)C(=O)N[C@@H](Cc1ccc(O)cc1)C(=O)N[C@@H](Cc1ccc(O)cc1)C(=O)N[C@H](C(=O)N[C@@H](CO)C(=O)N[C@@H](CC(C)C)C(=O)N[C@@H](CCCNC(=N)N)C(=O)N[C@@H](Cc1c[nH]cn1)C(=O)N[C@@H](Cc1ccc(O)cc1)C(=O)N[C@@H](Cc1ccc(O)cc1)C(=O)N[C@@H](CC(N)=O)C(=O)N[C@@H](Cc1c[nH]c2ccccc12)C(=O)N[C@@H](CC(C)C)C(=O)N[C@H](C(=O)N[C@@H](CCCNC(=N)N)C(=O)N[C@@H](CCC(N)=O)C(=O)N[C@@H](CCCNC(=N)N)C(=O)N[C@@H](Cc1ccc(O)cc1)C(N)=O)[C@@H](C)O)C(C)C [Compound 114, N{alpha-4}-(3-methylbutanoyl)-N{epsilon-7}-(6-[(4S)-4-carboxy-4-(17-carboxyheptadecanamido)butanamido]hexanoyl)-[4A,6A,7K,9E,13T,17I,18Q,22V,28Y,30W,31L]-hPYY(4-36)]
10.0 | >10.0 | > 5 | > 5 | > 5 | 2.91 |  | CC(C)CC(=O)N[C@@H](C)C(=O)N1CCC[C@H]1C(=O)N[C@@H](CCC(=O)O)C(=O)N[C@@H](CCCCNC(=O)CCCCCNC(=O)CC[C@H](NC(=O)CCCCCCCCCCCCCCCCC(=O)O)C(=O)O)C(=O)N1CCC[C@H]1C(=O)N[C@@H](CCC(=O)O)C(=O)N[C@@H](CCC(=O)O)C(=O)N[C@@H](C)C(=O)N[C@@H](C)C(=O)N[C@H](C(=O)N1CCC[C@H]1C(=O)N[C@@H](CCC(=O)O)C(=O)N[C@@H](CCC(=O)O)C(=O)N[C@@H](CC(C)C)C(=O)N[C@@H](CCC(N)=O)C(=O)N[C@@H](CCCNC(=N)N)C(=O)N[C@@H](Cc1ccc(O)cc1)C(=O)N[C@@H](Cc1ccc(O)cc1)C(=O)N[C@H](C(=O)N[C@@H](CO)C(=O)N[C@@H](CC(C)C)C(=O)N[C@@H](CCCNC(=N)N)C(=O)N[C@@H](Cc1c[nH]cn1)C(=O)N[C@@H](Cc1ccc(O)cc1)C(=O)N[C@@H](Cc1ccc(O)cc1)C(=O)N[C@@H](CC(N)=O)C(=O)N[C@@H](Cc1c[nH]c2ccccc12)C(=O)N[C@@H](CC(C)C)C(=O)N[C@H](C(=O)N[C@@H](CCCNC(=N)N)C(=O)N[C@@H](CCC(N)=O)C(=O)N[C@@H](CCCNC(=N)N)C(=O)N[C@@H](Cc1ccc(O)cc1)C(N)=O)[C@@H](C)O)C(C)C)[C@@H](C)O [Compound 128, N{alpha-4}-(3-methylbutanoyl)-N{epsilon-7}-(6-[(4S)-4-carboxy-4-(17-carboxyheptadecanamido)butanamido]hexanoyl)-[4A,7K,9E,11A,13T,18Q,22V,28Y,30W,31L]-hPYY(4-36)]
9.7 | 10.0 | > 5 | > 5 | > 5 | 2.18 |  | CC[C@H](C)[C@H](NC(=O)[C@H](CCC(=O)O)NC(=O)[C@H](CCC(=O)O)NC(=O)[C@@H]1CCCN1C(=O)[C@H](CO)NC(=O)[C@H](C)NC(=O)[C@H](C)NC(=O)[C@H](CCC(=O)O)NC(=O)[C@H](CCC(=O)O)NC(=O)[C@@H]1CCCN1C(=O)[C@H](CCCCNC(=O)CCCCCNC(=O)CC[C@H](NC(=O)CCCCCCCCCCCCCCCCC(=O)O)C(=O)O)NC(=O)[C@H](CCC(=O)O)NC(=O)[C@@H]1CCCN1C(=O)[C@H](C)NC(=O)CC(C)C)C(=O)N[C@@H](CCC(N)=O)C(=O)N[C@@H](CCCNC(=N)N)C(=O)N[C@@H](Cc1ccc(O)cc1)C(=O)N[C@@H](Cc1ccc(O)cc1)C(=O)N[C@H](C(=O)N[C@@H](CO)C(=O)N[C@@H](CC(C)C)C(=O)N[C@@H](CCCNC(=N)N)C(=O)N[C@@H](Cc1c[nH]cn1)C(=O)N[C@@H](Cc1ccc(O)cc1)C(=O)N[C@@H](Cc1ccc(O)cc1)C(=O)N[C@@H](CC(N)=O)C(=O)N[C@@H](Cc1c[nH]c2ccccc12)C(=O)N[C@@H](CC(C)C)C(=O)N[C@H](C(=O)N[C@@H](CCCNC(=N)N)C(=O)N[C@@H](CCC(N)=O)C(=O)N[C@@H](CCCNC(=N)N)C(=O)N[C@@H](Cc1ccc(O)cc1)C(N)=O)[C@@H](C)O)C(C)C [Compound 150, N{alpha-4}-(3-methylbutanoyl)-N{epsilon-7}-(6-[(4S)-4-carboxy-4-(17-carboxyheptadecanamido)butanamido]hexanoyl)-[4A,7K,9E,11A,17I,18Q,22V,28Y,30W,31L]-hPYY(4-36)]

— patent publication US12391737B2, “Soluble NPY2 receptor agonists” (Boehringer Ingelheim International GmbH, priority 2020, dated 2025)
